In experiment [1] the test system is phytopathogens. The settings on record: in vitro, complete ionization to an inactive carboxylate ion; cited from earlier work.
In experiment [2] the test system is cell lines. Kind of experiment: MTT cytotoxicity assay. The class given is cell-based. The settings on record: average of three replicates. Set-up: dose or concentration left out as unconfirmed. The protocol:
At the end of incubation, 20 μL MTT (5 mg/mL) was added and cells were incubated at 37° C. After 4 hr, MTT was removed and 100 μL of DMSO was added. Cell viability was determined by measuring the absorbance at a test wavelength of 570 nm.
Cytotoxycity of dimer of phenazine-1-carboxylic acid natural product against cell lines was determined by MTT assay. […] At the end of incubation, 20 μL MTT (5 mg/mL) was added and cells were incubated at 37° C. After 4 hr, MTT was removed and 100 μL of DMSO was added. Cell viability was determined by measuring the absorbance at a test wavelength of 570 nm.
For orientation: Tetrazolium dyes change colour on reduction, which living cells bring about.

The test system of experiment [3] is plant, animal and human pathogens. Kind of experiment: Antimicrobial activity in acidic and alkaline pH. The class given is cell-based. The following applies: in vitro. The protocol:
(§1) Assay plates were incubated at 28° C. for 3 days to observe the zone of growth-inhibition of test microorganisms.
(§2) Test compound was dissolved in chloroform at various concentrations, separately loaded on to sterile filter paper discs (Whatman No.1, 6 mm diameter) and placed on the surface of agar plates pre-inoculated with the test pathogens. Assay plates were incubated at 27° C. for 72 hr for fungi and 27° C. to about 37° C. for 48 hr for bacteria.

In experiment [4] the test system is C. capsici. In words: Antimicrobial MIC, agar/disc diffusion. Format: cell-based. The following applies: 27° C. for 72 hr. The protocol: as §1, §2
A general note: In agar diffusion tests the substance spreads into inoculated agar from a disc or well.

Experiment [5] relates to Macrophomina phaeseolina. Kind of experiment: Antimicrobial MIC, agar/disc diffusion. The class given is cell-based. The settings on record: 27° C. for 72 hr. How it is done:
as §1, §2

Experiment [6] has as its system Staphylococcus aureus. In words: Antimicrobial MIC, agar/disc diffusion. The class given is cell-based. The settings on record: 27° C. to about 37° C. for 48 hr. How it is done: as §1, §2
Experiment [7] concerns C. falcatum. Kind of experiment: Antimicrobial MIC, agar/disc diffusion. Format: cell-based. The settings on record: 27° C. for 72 hr. How it is done: as §1, §2
For experiment [8], the system named is Escherichia coli. Kind of experiment: Antimicrobial MIC, agar/disc diffusion. Format: cell-based. The following applies: 27° C. to about 37° C. for 48 hr. How it is done: as §1, §2
For experiment [9], the system named is Sarocladium oryzae. In words: Antimicrobial MIC, agar/disc diffusion. Format: cell-based. The following applies: 27° C. for 72 hr. The protocol: as §1, §2
Experiment [10] has as its system Rhizoctonia solani. In words: Antimicrobial MIC, agar/disc diffusion. The settings on record: 27° C. for 72 hr. The class given is cell-based. The protocol:
as §1, §2

The test system of experiment [11] is Salmonella typhimurium. In words: Antimicrobial MIC, agar/disc diffusion. The following applies: 27° C. to about 37° C. for 48 hr. Format: cell-based. How it is done:
as §1, §2

Experiment [12] has as its system Pseudomonas aeruginosa. In words: Antimicrobial MIC, agar/disc diffusion. The class given is cell-based. The following applies: 27° C. to about 37° C. for 48 hr. The protocol:
as §1, §2

The subject of experiment [13] is Botrytis cinera. In words: Antimicrobial MIC, agar/disc diffusion. Format: cell-based. The following applies: 27° C. for 72 hr. The protocol:
as §1, §2

For experiment [14], the system named is Colletotrichum gleosporoides. In words: Antimicrobial MIC, agar/disc diffusion. The following applies: 27° C. for 72 hr. The class given is cell-based. The protocol: as §1, §2
Experiment [15] relates to Fusarium oxysporum sub sp. cubense. In words: Antimicrobial MIC, agar/disc diffusion. The class given is cell-based. The settings on record: 27° C. for 72 hr. How it is done: as §1, §2

By MIC is commonly meant the lowest concentration found to suppress growth.

For the molecule `O=C(O)c1cccc2nc3ccccc3nc12` [PCA, phenazine 1-carboxylic acid], the “effectiveness in alkaline pH” value in [1] was “ineffective”.

In the case of dimer of phenazine-1-carboxylic acid, the “OD @ 570 nm” value came out at 0.531 in experiment [2] (concentration 1, 24 hr at 37° C.); 0.472 in experiment [2] (concentration 10, 24 hr at 37° C.); 0.366 in experiment [2] (concentration 25, 24 hr at 37° C.); 0.285 in experiment [2] (concentration 50, 24 hr at 37° C.). The antimicrobial activity entry in experiment [3] is “showed antimicrobial activity”. Moreover, the MIC in experiment [4] was 7 µg/mL; in experiment [5], 12 µg/mL; in experiment [6] it was over 120 µg/mL; in experiment [7] it was 5 µg/mL; in [8], over 100 µg/mL; in experiment [9], 3 µg/mL. Moreover, the MIC in [10] was 2 µg/mL; in experiment [11] it was over 120 µg/mL; in [12], over 90 µg/mL; in [13], 14 µg/mL; in [14], 7 µg/mL; in experiment [15], 7 µg/mL.

Values taken from patent US7365194B2 (Pondicherry University and Department of Biotechnology, priority 2004, dated 2008).
